Laboratory results: patent US9181263B2, “Inhibitors of bruton's tyrosine kinase” (PHARMACYCLICS, INC., priority 2007, dated 2015)
Entries after “also recorded” stand apart in the source; their conditions may differ. Values belong to the compound of their own block, whether it stands above or below them.

Legend:
[1] = Glutathione binding assay; assay type: physicochemical; conditions: 5 mM glutathione, 10 μM inhibitor, potassium phosphate buffer, room temperature, HPLC
Protocol: A calculated value (e.g (1/Btk IC50)/Glutathione conjugation rate) as shown in the Table 2) is used to compare compounds for their ratio between potency at inhibiting their target and their non-specific binding to other SH groups, such as those in glutathione. […] Calculated ratios such as these are used to quantitatively compare different compounds and select compounds for further study.
For the glutathione binding assays, 5 mM glutathione, 10 μM Btk inhibitor in DMSO (10 μL) and 6 equivalents of N′N′ Diisopropyl ethyl amine were combined in 1 mL potassium phosphate buffer. The mixture was incubated for 0, 15, 60 minutes at room temperature and the reaction was stopped with 10 equivalents of formic acid. 50 μL of each reaction mixture was injected on HPLC (Mobil Phase A: 0.2% formic acid in water, Mobile Phase B: 0.2% formic acid in acetonitrile, HPLC Column: Metasil Basic 3μ, 150×4.6 mm, 10% B, Gradient: 10% to 90% B, Detection: UV/Vis […]). Rate of reaction was reported as nmole GSH conjugate conversion per minute from the normalized ratio for area under the curve from HPLC chromatograms for both GSH conjugate and the parent.

Ramos cells = assay: Cell proliferation, Ramos cell line; assay type: cell-based
Protocol: (§1) After 72 hours, cell number was measured using Alamar Blue using manufacturer's protocol. A dilution series of untreated cells was run in parallel to verify that the Alamar Blue assay reliably reflected cell number and that growth conditions were not limiting. […] GI50 values were confirmed in two or more separate experiments for each cell line.
(§2) To identify biomarkers that correlate with response to Compound 1, phosphorylation events in the BCR signal transduction pathway were investigated.

[2] = system: Btk expressing B cell lymphoma cell lines; assay: Panel of nine Btk expressing B cell lymphoma cell lines, sensitivity vs basal pERK; assay type: cell-based
Protocol: as §1
A panel of nine Btk expressing B cell lymphoma cell lines was screened for basal pERK levels.

DOHH2 xenograft = assay: DOHH2 lymphoma xenograft model; assay type: in vivo; conditions: DOHH2 xenograft in SCID mice, dosed orally
DLCL2 xenograft = assay: DLCL2 lymphoma xenograft model; assay type: in vivo; conditions: DLCL2 xenograft in SCID mice, dosed orally
[3] = system: collagen-induced arthritis (paw inflammation); assay: Collagen-induced arthritis in the mouse; assay type: in vivo, male DBA/1OlaHsd mice
Protocol: […]. Compound for vehicle was dosed orally once per day starting at day 1. Dexamethasone was included as a positive control. Paw inflammation was scored from 0-5 and averaged across all paws from all animals for each group in the study.
. After paw inflammation was established, animals were randomized and Compound for vehicle was dosed orally once per day starting at day 1. Paw inflammation was scored from 0-5 and averaged across all paws from all animals for each group in the study. […] Dexamethasone was included as a positive control.

[4] = system: MRL/lpr model of lupus (proteinuria); assay: Mouse MRL/lpr model of lupus; assay type: in vivo, MRL/lpr mice
Text: FIG. 3 presents an illustrative line graph showing inhibition of disease progression in a mouse MRL/lpr model of lupus.

mast cell degranulation = assay: Mouse passive cutaneous anaphylaxis model; assay type: in vivo, mice; conditions: single oral dose, increasing doses, 1 hour before DNP-BSA challenge
Protocol: FIG. 4 presents an illustrative bar graph showing inhibition of mast cell degranulation in a mouse passive cutaneous anaphylaxis model. […] After one hour, animals were challenged with an intravenous injection of DNP-BSA and Evans Blue dye and the area of extravasation was measured.
Mice were sensitized with an intradermal injection of monoclonal anti-DNP-IgE in the back. […] After one hour, animals were challenged with an intravenous injection of DNP-BSA and Evans Blue dye. Mast cell degranulation leads to vascular permeability and the distribution of the dye into the skin of the back. The area of extravasation after 1 hour is measured.

[5] = Plasma concentrations after oral dosing of rats; assay type: in vivo, male jugular vein cannulated rats; conditions: rat plasma, single 8 mg/kg dose by oral gavage, dosed in combination
Protocol: Blood samples were collected at 0.0833 (5 minutes), 0.333 (20 minutes), 1, 3, 6, 9, and 24 hours post-dosing from orally dosed rats.
Male jugular vein cannulated rats were administered a single dose of all test compounds at 8 mg/kg each, in combination by oral gavage. Dose volumes were adjusted based on body weight data collected immediately prior to dosing. Blood samples were collected at 0.0833 (5 minutes), 0.333 (20 minutes), 1, 3, 6, 9, and 24 hours post-dosing from orally dosed rats. The samples were collected into plasma separator Microtainer tubes with anticoagulant (lithium heparin). Plasma samples were prepared by centrifugation (5 min at 5000×g), and at least 100 μL were transferred to storage tubes and stored frozen at −80° C. Plasma samples were thawed and 75 uL aliquots were transferred to centrifuge tubes to which 10 μL aliquots of internal standard solution (1 μg/mL) were added. The samples were not diluted with blank plasma prior to further processing. Soluble proteins were precipitated by the addition of 200 μL of acetonitrile, followed by centrifugation (20 min at 16,000×g). The samples were evaporated to dryness and reconstituted in 200 μL of water containing 0.2% formic acid and 10% methanol. All samples were loaded onto an autosampler maintained at 6° C. and evaluated for concentrations of test compounds using LC-MS/MS.

normal human B cells = assay: B cell activation after brief exposure and washout (CD69); assay type: cell-based; conditions: 1 hour exposure, washed three times, then IgM F(ab')2 stimulation for 18 hours
Protocol: (§3) B cells were purified from blood from healthy donors by negative selecting using the RosetteSep Human B cell enrichment cocktail. […] After incubation for 1 hour at 37° C., cells were washed three times using an 8-fold dilution in growth media for each wash. Cells were then stimulated with IgM F(ab′)2 for 18 hours at 37° C., stained with anti-CD69-PE antibody and analyzed by flow cytometry.
as §3, with “stimulated with 10 ug/ml of IgM F(ab′)2” for “stimulated with IgM F(ab′)2”, “at 37° C. Cells were then stained with” for “at 37° C., stained with”, “by flow cytometry using standard conditions.” for “by flow cytometry.”

[6] = system: pERK / BCR signal transduction pathway in DOHH2 cells; assay: BCR pathway phosphorylation (phospho-specific antibodies) in DOHH2; assay type: cell-based
Text: as §2
(§4) However, when we examined basal phosphorylation levels, we found higher basal phosphorylation in DOHH2 compared to Ramos, with phospho-ERK in particular indicating higher levels of basal or tonic signaling in DOHH2.

[7] = system: pERK / BCR signal transduction pathway in Ramos cells; assay: BCR pathway phosphorylation (phospho-specific antibodies) in Ramos; assay type: cell-based
Text: as §2, §4

lymphoma cell lines = assay: In vitro cell proliferation, variety of lymphoma cell lines; assay type: cell-based; conditions: 72 hours
Protocol: as §1

[8] = molecular target: panel of greater than 100 kinases (Tec family kinases including Btk, Src family kinases); assay: In vitro profiling against a panel of greater than 100 kinases; assay type: biochemical
Text: By way of example only and in some embodiments, the observed potency, selectivity, and cell permeability of compounds such as Compound 2 are appropriate to incorporate these molecules into a Kinase-targeted, activity based probe that allows direct visualization of Kinase activity in intact cells. […] Without limiting the scope of the compositions and methods described herein, it is postulated that the structural basis for the selectivity is covalent modification of a non-catalytic cysteine residue (Cys 481 in Btk) that is conserved in the ATP binding pocket of the Tec family and several other kinases.

BTK = BTK (Homo sapiens (Human), UniProt Q06187); assay: HotSpot kinase assay, BTK; assay type: biochemical; conditions: purified enzyme, 33P-ATP, 1 uM ATP
EGFR = EGFR (Homo sapiens (Human), UniProt P00533); assay: HotSpot kinase assay, EGFR; assay type: biochemical; conditions: purified enzyme, 33P-ATP, 1 uM ATP; printed EFGR in Table 1
Egr-1 = assay: Expression of ERK transcriptional target Egr-1; assay type: cell-based; conditions: 1 uM
[9] = 12.5 mg/kg orally once per day, to day 11
[10] = 50 mg/kg orally once per day, to day 11

Chain of BTK (Q06187 whole entry): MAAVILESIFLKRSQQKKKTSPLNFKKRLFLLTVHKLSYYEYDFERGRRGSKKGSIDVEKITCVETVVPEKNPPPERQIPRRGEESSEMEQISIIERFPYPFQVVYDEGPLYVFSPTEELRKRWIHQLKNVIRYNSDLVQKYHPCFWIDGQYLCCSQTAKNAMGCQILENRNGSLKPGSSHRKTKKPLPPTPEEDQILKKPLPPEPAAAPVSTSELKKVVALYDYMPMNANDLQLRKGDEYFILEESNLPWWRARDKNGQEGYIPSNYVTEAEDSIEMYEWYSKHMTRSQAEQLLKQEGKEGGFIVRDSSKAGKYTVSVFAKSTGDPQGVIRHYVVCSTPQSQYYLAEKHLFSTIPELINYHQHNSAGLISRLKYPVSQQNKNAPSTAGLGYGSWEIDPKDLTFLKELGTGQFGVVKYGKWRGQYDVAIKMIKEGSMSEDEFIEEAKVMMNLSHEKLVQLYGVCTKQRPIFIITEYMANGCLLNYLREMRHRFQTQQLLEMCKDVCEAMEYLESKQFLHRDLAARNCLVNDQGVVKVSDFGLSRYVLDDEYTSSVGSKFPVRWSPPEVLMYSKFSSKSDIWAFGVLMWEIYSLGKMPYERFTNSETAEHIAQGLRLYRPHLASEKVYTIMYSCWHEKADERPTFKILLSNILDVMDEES
Chain of EGFR (P00533 25-1210): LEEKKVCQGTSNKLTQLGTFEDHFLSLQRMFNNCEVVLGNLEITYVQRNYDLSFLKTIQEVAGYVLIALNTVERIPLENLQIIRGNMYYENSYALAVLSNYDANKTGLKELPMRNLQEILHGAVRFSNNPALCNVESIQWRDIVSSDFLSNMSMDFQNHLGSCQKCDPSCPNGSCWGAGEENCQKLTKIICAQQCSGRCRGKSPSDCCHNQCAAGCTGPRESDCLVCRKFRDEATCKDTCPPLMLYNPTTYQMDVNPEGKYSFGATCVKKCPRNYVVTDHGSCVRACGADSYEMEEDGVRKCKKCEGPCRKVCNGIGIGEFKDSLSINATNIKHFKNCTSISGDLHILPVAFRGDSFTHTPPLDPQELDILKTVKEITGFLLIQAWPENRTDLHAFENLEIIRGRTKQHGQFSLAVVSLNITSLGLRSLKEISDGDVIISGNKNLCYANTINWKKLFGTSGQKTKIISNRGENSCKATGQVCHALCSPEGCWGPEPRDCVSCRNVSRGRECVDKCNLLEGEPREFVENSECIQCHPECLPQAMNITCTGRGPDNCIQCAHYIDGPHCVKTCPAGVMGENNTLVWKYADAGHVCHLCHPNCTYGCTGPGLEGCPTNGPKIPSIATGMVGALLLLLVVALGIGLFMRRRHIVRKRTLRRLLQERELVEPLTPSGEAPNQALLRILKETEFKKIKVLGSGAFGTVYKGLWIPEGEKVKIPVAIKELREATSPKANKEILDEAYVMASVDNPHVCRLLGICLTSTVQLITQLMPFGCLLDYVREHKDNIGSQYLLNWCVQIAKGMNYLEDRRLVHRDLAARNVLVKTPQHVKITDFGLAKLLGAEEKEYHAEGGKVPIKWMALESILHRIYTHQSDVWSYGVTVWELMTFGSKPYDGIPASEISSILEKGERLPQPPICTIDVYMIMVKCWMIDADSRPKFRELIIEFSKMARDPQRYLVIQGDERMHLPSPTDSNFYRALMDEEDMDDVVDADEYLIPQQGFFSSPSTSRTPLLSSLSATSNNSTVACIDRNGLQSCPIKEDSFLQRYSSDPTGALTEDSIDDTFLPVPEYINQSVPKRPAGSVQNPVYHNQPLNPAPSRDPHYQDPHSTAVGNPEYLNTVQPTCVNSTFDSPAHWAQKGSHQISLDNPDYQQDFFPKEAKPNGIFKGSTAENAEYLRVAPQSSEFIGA

SMILES: CN(C)C/C=C/C(=O)N1CCC[C@@H](n2nc(-c3ccc(Oc4ccccc4)cc3)c3c(N)ncnc32)C1 [Compound 2]
kinase panel profile [8]: highly potent and selective inhibitor of Tec family kinases, including, Btk, as well as Src family kinases

SMILES: CN(C/C=C/C(=O)N1CCCC(n2nc(-c3ccc(Oc4ccccc4)cc3)c3c(N)ncnc32)C1)CCO (centres unmarked) [Compound 3]
IC50 (BTK): 0.0021 µM | IC50 (EGFR): 0.0745 µM

SMILES: Nc1ncnc2c1c(-c1ccc(Oc3ccccc3)cc1)nn2C1CCCN(C(=O)/C=C/c2c[nH]cn2)C1 (centres unmarked) [Compound 4]
IC50 (BTK): 0.0222 µM | IC50 ([6]; unstimulated DOHH2 cells (basal), read-out: pERK levels IC50): < 0.01 µM | decrease of pERK levels ([7]; unstimulated Ramos cells (basal)): not | time to reduced Egr-1 expression (Egr-1): ≤ 1 h | maximal downregulation of Egr-1 expression (Egr-1; achieved by 4 hr): 10 fold

SMILES: CN(C)C/C=C/C(=O)N1CCC(n2nc(-c3ccc(Oc4ccccc4)cc3)c3c(N)ncnc32)CC1 [Compound 7, (E)-1-(4-(4-amino-3-(4-phenoxyphenyl)-1H-pyrazolo[3,4-d]pyrimidin-1-yl)piperidin-1-yl)-4-(dimethylamino)but-2-en-1-one]
Glutathione Conj Rate [1]: 0.01 nmol/min | in vivo half-life [5]: significantly longer in vivo half-life

SMILES: C=CC(=O)N[C@H]1CC[C@@H](n2nc(-c3ccc(Oc4ccccc4)cc3)c3c(N)ncnc32)CC1 [Compound 9]
paw inflammation [3, 9]: reduced the increase in paw inflammation | paw inflammation [3, 10]: reduced the increase in paw inflammation

Further lines, with some results ahead:

Glutathione Conj Rate [1]: 0.398 nmol/min | GI50 ([2]; 5 of the seven lines with significantly higher basal pERK): < 1.3 µM | in vivo half-life [5]: short half-life in vivo
SMILES: C=CC(=O)N1CCC[C@@H](n2nc(-c3ccc(Oc4ccccc4)cc3)c3c(N)ncnc32)C1 [Compound 1]
sensitivity of cell line to compound (Ramos cells): resistant | sensitivity of cell lines to compound ([2]; the two cell lines with low pERK levels): resistant | tumor growth (DOHH2 xenograft): inhibition of tumor growth; also recorded: inhibits tumor growth | tumor growth (DLCL2 xenograft): inhibition of tumor growth; also recorded: inhibits tumor growth | paw inflammation ([3]; 3.125 mg/kg orally once per day, to day 11): significantly reduced the increase in paw inflammation | paw inflammation ([3]; 12.5 mg/kg intermittent dosing: days 1, 2, 3 or days 9, 10, 11 of an 11-day period): reduced the increase in paw inflammation | paw inflammation [3, 9]: regressed inflammation | paw inflammation [3, 10]: regressed inflammation | proteinuria (urine protein levels) ([4]; 3.125 mg/kg orally once per day until 20 weeks of age): significantly reduced proteinuria | proteinuria (urine protein levels) ([4]; 12.5 mg/kg orally once per day until 20 weeks of age): significantly reduced proteinuria | proteinuria (urine protein levels) ([4]; 50 mg/kg orally once per day until 20 weeks of age): significantly reduced proteinuria | amount of Evans Blue release (area of extravasation) (mast cell degranulation): significantly decrease the amount of Evans Blue release | B cell activation (CD69) (normal human B cells): sufficient to inhibit B cell activation | BCR-stimulus induced phosphorylation events ([6]; DOHH2, anti-IgM or anti-IgG cross-linking): inhibits most BCR-stimulus induced phosphorylation events | BCR-stimulus induced phosphorylation events ([7]; Ramos, anti-IgM or anti-IgG cross-linking): inhibits most BCR-stimulus induced phosphorylation events | lymphoma tumor cell growth (lymphoma cell lines): inhibits lymphoma tumor cell growth

Glutathione Conj Rate [1]: 0.004 nmol/min
SMILES: Nc1ncnc2c1c(-c1ccc(Oc3ccccc3)cc1)nn2C1CCCN(C(=O)/C=C/CN2CCOCC2)C1 (centres unmarked) [Compound 5, (E)-1-(3-(4-amino-3-(4-phenoxyphenyl)-1H-pyrazolo[3,4-d]pyrimidin-1-yl)piperidin-1-yl)-4-morpholinobut-2-en-1-one]

Glutathione Conj Rate [1]: 0.39 nmol/min
SMILES: C=CC(=O)N1CCC(n2nc(-c3ccc(Oc4ccccc4)cc3)c3c(N)ncnc32)CC1 [Compound 6]

in vivo half-life [5]: significantly longer in vivo half-life
SMILES: CN(C)C/C=C/C(=O)N[C@H]1CC[C@@H](n2nc(-c3ccc(Oc4ccccc4)cc3)c3c(N)ncnc32)CC1 [Compound 8, (E)-N-((1s,4s)-4-(4-amino-3-(4-phenoxyphenyl)-1H-pyrazolo[3,4-d]pyrimidin-1-yl)cyclohexyl)-4-(dimethylamino)but-2-enamide]

Glutathione Conj Rate [1]: 0.004361 nmol/min | in vivo half-life [5]: short half-life in vivo
SMILES: CN(C)C/C=C/C(=O)N1CCC[C@H]1Cn1nc(-c2ccc(Oc3ccccc3)cc2)c2c(N)ncnc21 [Compound 12, (E)-1-((S)-2-((4-amino-3-(4-phenoxyphenyl)-1H-pyrazolo[3,4-d]pyrimidin-1-yl)methyl)pyrolidin-1-yl)-4-(dimethylamino)but-2-en-1-one]

Glutathione Conj Rate [1]: 0.0243 nmol/min
SMILES: CC#CC(=O)N1CCC[C@@H](n2nc(-c3ccc(Oc4ccccc4)cc3)c3c(N)ncnc32)C1 [Compound 17, 1-((R)-3-(4-amino-3-(4-phenoxyphenyl)-1H-pyrazolo[3,4-d]pyrimidin-1-yl)piperidin-1-yl)but-2-yn-1-one]

Glutathione Conj Rate [1]: 0.014 nmol/min
SMILES: CC#CC(=O)N[C@H]1CC[C@@H](n2nc(-c3ccc(Oc4ccccc4)cc3)c3c(N)ncnc32)CC1 [Compound 22, N-((1s,4s)-4-(4-amino-3-(4-phenoxyphenyl)-1H-pyrazolo[3,4-d]pyrimidin-1-yl)cyclohexyl)but-2-ynamide]
